Among the test systems are 786-0; UACC-62; KM12; U-251; SW-620; SNB-75; HCT-15; COLO 205; UO-31; SF-539; LOX IMVI; IGROV-1; SK-MEL-2; SK-MEL-5; SF-295; NCI-H226; CAKI-1.
What all share (assay): DTP human tumour cell line panel, 48 h

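Test compounds were applied to cells in 96-well plates for 48 hours at 5 doses. GI50 marks 50% less growth.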 The source made the active and inactive calls. Rule as the data show it: active = GI50 up to about 1.1 µM and inactive = higher. Some results are limits rather than exact numbers.

For the compound `COc1cccc(-c2cc(O)c3cc(OC)c(OC)cc3n2)c1`, the GI50 in the assay on 786-0 was 46.6 µM (inactive); with UACC-62, 43.6 µM (inactive); in the assay on KM12, 24.2 µM (inactive); with U-251, 60.5 µM (inactive); in the assay on SW-620, 32 µM (inactive); in the assay with SNB-75, 34.8 µM (inactive). The GI50 in the assay on HCT-15 is 52.6 µM; in the assay on COLO 205 it was 39.3 µM (inactive); in the assay with UO-31, 41.6 µM (inactive); in the assay on SF-539 it was 26.4 µM (inactive); with LOX IMVI, 64.7 µM (inactive); with IGROV-1, 89.3 µM (inactive).
As for `C=C1Cc2cc(OC)c(OC)c(OC)c2-c2ccc(SC)c(=O)cc21`, the GI50 with 786-0, in the assay on UACC-62, with KM12, in the assay on U-251, in the assay on SW-620 and in the assay on SK-MEL-2 was < 0.01 µM (active) in each case. Besides, the GI50 in the assay with HCT-15 was below 0.01 µM; in the assay with SK-MEL-5, < 0.01 µM (active); in the assay on COLO 205, < 0.01 µM (active); with SF-295, < 0.01 µM (active); with SF-539 it was < 0.01 µM (active); in the assay on LOX IMVI, < 0.01 µM (active). Further, the GI50 in the assay with NCI-H226 was < 0.01 µM (active); with IGROV-1, < 0.0424 µM (active).
With `N/N=C1\C(=O)N(Cc2ccccc2)C(=O)C1C(=O)NCc1ccccc1` (stereo not given), the GI50 in the assay with 786-0, in the assay on UACC-62, with KM12, with U-251, with SW-620 and in the assay with SK-MEL-2 was > 100 µM (inactive) each time. For the same compound, the concentration for 50% growth inhibition (GI50) is above 100 µM in the assay on HCT-15; > 100 µM (inactive) in the assay on SK-MEL-5; > 100 µM (inactive) in the assay on COLO 205; > 100 µM (inactive) with UO-31; > 100 µM (inactive) with SF-295; > 100 µM (inactive) with SF-539. In addition, the GI50 in the assay on IGROV-1 is > 100 µM (inactive).
For `O=C1C(c2ccccc2)=C(c2ccccc2)[C@H](c2ccccc2)[C@]1(Cc1nnn(-c2ccc([N+](=O)[O-])cc2)c1N1CCOCC1)c1ccccc1`, the GI50 in the assay with 786-0 was > 37.5 µM (inactive); in the assay with UACC-62 it was > 37.5 µM (inactive); in the assay with U-251 it was > 37.5 µM (inactive); with SW-620, > 37.5 µM (inactive); in the assay on SNB-75 it was > 37.5 µM (inactive); with HCT-15, above 37.5 µM. Further, the GI50 with SK-MEL-5 is 19.1 µM (inactive); with COLO 205 it was > 37.5 µM (inactive); with SF-295, 35.6 µM (inactive); with SF-539, > 37.5 µM (inactive); in the assay on LOX IMVI it was 24.5 µM (inactive); in the assay with IGROV-1, > 37.5 µM (inactive). Further, in the assay on CAKI-1, the GI50 was > 37.5 µM (inactive).
As to `O=C(CN(Cc1ccccc1)Cc1ccccc1)N1CCc2c([nH]c3ccccc23)C1c1cccnc1` (stereo not given), the GI50 with 786-0 is 5.87 µM (inactive); in the assay with UACC-62, 11.1 µM (inactive); in the assay on KM12, 4.14 µM (inactive); with U-251 it was 6.37 µM (inactive); with SW-620, 5.65 µM (inactive); in the assay on SNB-75 it was 7.36 µM (inactive). Besides, the GI50 is 5.64 µM in the assay with HCT-15; 7.23 µM (inactive) with SK-MEL-5; 2.63 µM (inactive) in the assay with UO-31; 6.64 µM (inactive) in the assay on SF-295; 12.2 µM (inactive) with SF-539; 7.73 µM (inactive) in the assay with LOX IMVI. For the same compound, the figures for the GI50 with IGROV-1 and in the assay on CAKI-1 were 29.7 µM (inactive) and 4.85 µM (inactive), respectively.
On to `CC(C)(C)C(=O)O[C@@H]1COC2C(O)COC21` (stereo not given in full), for which the GI50 with 786-0, in the assay on UACC-62, in the assay with KM12, in the assay on U-251, with SW-620 and in the assay on SNB-75 was > 100 µM (inactive) each time. The GI50 with SK-MEL-5, in the assay with COLO 205, in the assay on UO-31, with SF-295, with SF-539 and in the assay on LOX IMVI was > 100 µM (inactive) throughout. In addition, the GI50 in the assay with IGROV-1 and with CAKI-1 was > 100 µM (inactive) each time.

As a reminder, the GI50 is the concentration giving 50% growth inhibition.

The values are drawn from ChEMBL document CHEMBL1201862, “PubChem BioAssay data set” (2004).
